Each structure is given as a SMILES string.

The first assay addresses T1, human GPR119 receptor (Homo sapiens, UniProt Q8TDV5, S329A/T327A).
T1 construct: N-terminal leader […]; expressed in transfected cells
T1 sequence (Q8TDV5 with tags, fused parts or gaps T327A/S329A): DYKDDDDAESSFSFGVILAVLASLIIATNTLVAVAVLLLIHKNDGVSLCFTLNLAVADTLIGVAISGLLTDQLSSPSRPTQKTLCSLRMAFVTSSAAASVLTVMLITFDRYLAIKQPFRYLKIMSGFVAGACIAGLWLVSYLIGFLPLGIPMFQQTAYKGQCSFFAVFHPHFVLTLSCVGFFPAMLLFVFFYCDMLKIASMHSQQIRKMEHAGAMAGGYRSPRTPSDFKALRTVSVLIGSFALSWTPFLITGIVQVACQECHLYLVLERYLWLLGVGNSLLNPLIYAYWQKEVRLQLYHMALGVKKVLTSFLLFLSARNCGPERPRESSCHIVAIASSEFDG
The assay can be described thus: cAMP assay (LANCE cAMP-384) in HEK293 cells stably expressing mutant human GPR119 receptor. It is filed as cell-based. The settings on record: HEK293, 20 min; at 10 μM; printed in EC50 column of the 36th table; read-out: stimulation in % at 10 μM. In outline: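 HEK293 cells stably expressing human GPR119 (T327A/S329A, modified N-terminus), 1000 cells/well, exposed to compound for 20 min at 37° C. cAMP quantified by LANCE TR-FRET against a standard curve; EC50 from 12 points, 30 μM to 100 pM, or % stimulation at 10 μM.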
A general note: Cyclic AMP is a second messenger, typically raised through Gs and lowered through Gi signalling.
On to `COc1ccccc1CN1CCC(ON=C2CCN(c3ccc(S(C)(=O)=O)cc3F)CC2)CC1` [Example 66-18], for which the activation at 10 µM worked out at 66%.

`CC(C)CN1CCC(ON=C2CCN(c3ccc(S(C)(=O)=O)cc3F)CC2)CC1` [Example 66-21]: the activation at 10 µM came out at 64%. The same measure, in the same setting: next, `CC(CCN1CCC(ON=C2CCN(c3ccc(S(C)(=O)=O)cc3F)CC2)CC1)c1ccccc1` (stereo not drawn) [Example 66-24]: 53%. On the same count and under the same terms, next, `Cc1cc(CN2CCC(ON=C3CCN(c4ccc(S(C)(=O)=O)cc4F)CC3)CC2)oc1C` [Example 66-34]: 75%; `CS(=O)(=O)c1ccc(N2CCC(=NOC3CCN(Cc4ccc5c(c4)CCO5)CC3)CC2)c(F)c1` [Example 66-35]: 61%. On to `CN(C)c1ccc(CN2CCC(ON=C3CCN(c4ccc(S(C)(=O)=O)cc4F)CC3)CC2)cc1` [Example 66-36], for which the activation at 10 µM worked out at 83%. Still for that read-out and setting: to `CS(=O)(=O)c1ccc(N2CCC(=NOC3CCN(Cc4ccc5c(c4)OCO5)CC3)CC2)c(F)c1` [Example 66-37] belongs 87%; to `Cc1ccc(CN2CCC(ON=C3CCN(c4ccc(S(C)(=O)=O)cc4F)CC3)CC2)c(F)c1F` [Example 66-48], 99%; to `CCc1ncc(CN2CCC(ON=C3CCN(c4ccc(S(C)(=O)=O)cc4F)CC3)CC2)cn1` [Example 66-49], 75%. Take `CS(=O)(=O)c1ccc(N2CCC(=NOC3CCN(Cc4cccnc4Cl)CC3)CC2)c(F)c1` [Example 66-51]: the activation at 10 µM amounted to 66%.

Still in this assay, the particulars now being: the 36th table, compounds 66-1 to 66-51; read-out: EC50.
`CS(=O)(=O)c1ccc(N2CCC(=NOC3CCN(Cc4ccccc4C#N)CC3)CC2)c(F)c1` [Example 66-19]: the EC50 was over 10 µM. In the case of `CS(=O)(=O)c1ccc(N2CCC(=NOC3CCN(Cc4ncco4)CC3)CC2)c(F)c1` [Example 66-20], the EC50 was over 10 µM. In the case of `CC(C)(C)CN1CCC(ON=C2CCN(c3ccc(S(C)(=O)=O)cc3F)CC2)CC1` [Example 66-22], the EC50 came out at 1.36 µM. Regarding `CC(C)CCN1CCC(ON=C2CCN(c3ccc(S(C)(=O)=O)cc3F)CC2)CC1` [Example 66-23], the EC50 was over 10 µM. The same measure, in the same setting: to `Cc1cccc(CN2CCC(ON=C3CCN(c4ccc(S(C)(=O)=O)cc4F)CC3)CC2)c1` [Example 66-25] belongs 0.605 µM; to `Cc1ccc(CN2CCC(ON=C3CCN(c4ccc(S(C)(=O)=O)cc4F)CC3)CC2)cc1` [Example 66-26], 0.288 µM. Consider `CCc1ccc(CN2CCC(ON=C3CCN(c4ccc(S(C)(=O)=O)cc4F)CC3)CC2)cc1` [Example 66-27], for which the EC50 is 0.109 µM. As to `CS(=O)(=O)c1ccc(N2CCC(=NOC3CCN(Cc4ccc(Cl)cc4)CC3)CC2)c(F)c1` [Example 66-28], the EC50 was 0.363 µM. Consider `CS(=O)(=O)c1ccc(N2CCC(=NOC3CCN(Cc4ccccc4C(F)(F)F)CC3)CC2)c(F)c1` [Example 66-29], for which the EC50 turned out to be 1.22 µM.

As for `CS(=O)(=O)c1ccc(N2CCC(=NOC3CCN(Cc4cccc(C(F)(F)F)c4)CC3)CC2)c(F)c1` [Example 66-30], the EC50 came out at 1.74 µM. On the same count and under the same terms, to `CS(=O)(=O)c1ccc(N2CCC(=NOC3CCN(Cc4ccc(C(F)(F)F)cc4)CC3)CC2)c(F)c1` [Example 66-31] belongs 0.354 µM; to `CC(C)c1ccc(CN2CCC(ON=C3CCN(c4ccc(S(C)(=O)=O)cc4F)CC3)CC2)cc1` [Example 66-32], 0.332 µM; to `CS(=O)(=O)c1ccc(N2CCC(=NOC3CCN(Cc4ccc(F)cc4)CC3)CC2)c(F)c1` [Example 66-33], 0.822 µM.

Consider `COc1ccc(CN2CCC(ON=C3CCN(c4ccc(S(C)(=O)=O)cc4F)CC3)CC2)cc1F` [Example 66-38], for which the EC50 worked out at 0.435 µM. Still for that read-out and setting: to `CC(=O)Nc1ccc(CN2CCC(ON=C3CCN(c4ccc(S(C)(=O)=O)cc4F)CC3)CC2)cc1` [Example 66-39] belongs over 10 µM; to `CC(C)Oc1ccc(CN2CCC(ON=C3CCN(c4ccc(S(C)(=O)=O)cc4F)CC3)CC2)cc1` [Example 66-40], 0.332 µM; to `CS(=O)(=O)c1ccc(N2CCC(=NOC3CCN(Cc4ccc(Br)cc4)CC3)CC2)c(F)c1` [Example 66-41], 0.609 µM. Turning to `CS(=O)(=O)c1ccc(N2CCC(=NOC3CCN(Cc4ccc(OC(F)(F)F)cc4)CC3)CC2)c(F)c1` [Example 66-42], the concentration for a half-maximal effect (EC50) was 0.503 µM.

Consider `CS(=O)(=O)c1ccc(N2CCC(=NOC3CCN(Cc4ccc(Br)cc4F)CC3)CC2)c(F)c1` [Example 66-44], for which the concentration for a half-maximal effect (EC50) amounted to 0.753 µM.

On to `COc1ccc(CN2CCC(ON=C3CCN(c4ccc(S(C)(=O)=O)cc4F)CC3)CC2)cc1` [Example 66-45], for which the EC50 turned out to be 6 µM. Take `CCOc1ccc(CN2CCC(ON=C3CCN(c4ccc(S(C)(=O)=O)cc4F)CC3)CC2)cc1` [Example 66-46]: the EC50 turned out to be 0.418 µM.

On to `Cc1ccc(CN2CCC(ON=C3CCN(c4ccc(S(C)(=O)=O)cc4F)CC3)CC2)c(F)c1` [Example 66-47], for which the EC50 is 0.909 µM. Still for that read-out and setting: to `COc1ccc(CN2CCC(ON=C3CCN(c4ccc(S(C)(=O)=O)cc4F)CC3)CC2)c(F)c1` [Example 66-50] belongs 1.01 µM.

Staying with this assay, now noted: the 37th table, compounds 66-52 to 66-64; read-out: EC50.
As for `CS(=O)(=O)c1cc(F)c(N2CCC(=NOC3CCN(Cc4ccc(-c5ccccn5)cc4)CC3)CC2)cc1F` [Example 66-52], the half-maximal effective concentration (EC50) stood at 0.926 µM. Regarding `CCCc1ccc(CN2CCC(ON=C3CCN(c4cc(F)c(S(C)(=O)=O)cc4F)CC3)CC2)cc1` [Example 66-53], the EC50 was found to be 0.035 µM. Take `Cc1ccc(CN2CCC(ON=C3CCN(c4cc(F)c(S(C)(=O)=O)cc4F)CC3)CC2)cc1` [Example 66-54]: the EC50 was found to be 0.044 µM.

For the molecule `CCc1ccc(CN2CCC(ON=C3CCN(c4cc(F)c(S(C)(=O)=O)cc4F)CC3)CC2)cc1` [Example 66-55], the EC50 amounted to 0.037 µM. For `CS(=O)(=O)c1cc(F)c(N2CCC(=NOC3CCN(Cc4ccc(Cl)cc4)CC3)CC2)cc1F` [Example 66-56], the concentration giving a half-maximal response (EC50) was determined as 0.05 µM. `CCCCc1ccc(CN2CCC(ON=C3CCN(c4cc(F)c(S(C)(=O)=O)cc4F)CC3)CC2)cc1` [Example 66-57]: the EC50 amounted to 0.029 µM. Turning to `CCc1ccc(C(C)N2CCC(ON=C3CCN(c4cc(F)c(S(C)(=O)=O)cc4F)CC3)CC2)cc1` (stereo not drawn) [Example 66-58], the EC50 is 0.072 µM. On the same count and under the same terms, to `CCCc1ccc(CN2CCC(ON=C3CCN(c4cc(F)c(S(C)(=O)=O)cc4F)CC3)CC2)c(F)c1` [Example 66-59] belongs 0.053 µM; to `CCCc1ccc(CN2CCC(ON=C3CCN(c4cc(F)c(S(C)(=O)=O)cc4F)CC3)CC2)cc1F` [Example 66-60], 0.031 µM; to `C/C=C/c1ccc(CN2CCC(ON=C3CCN(c4cc(F)c(S(C)(=O)=O)cc4F)CC3)CC2)cc1F` [Example 66-61], 0.049 µM. Regarding `C/C=C/c1ccc(CN2CCC(ON=C3CCN(c4cc(F)c(S(C)(=O)=O)cc4F)CC3)CC2)c(F)c1` [Example 66-62], the EC50 amounted to 0.136 µM. Still for that read-out and setting: to `CCc1ccc([C@H](C)N2CCC(ON=C3CCN(c4cc(F)c(S(C)(=O)=O)cc4F)CC3)CC2)cc1` [Example 66-63] belongs 0.294 µM; to `CCc1ccc([C@@H](C)N2CCC(ON=C3CCN(c4cc(F)c(S(C)(=O)=O)cc4F)CC3)CC2)cc1` [Example 66-64], over 10 µM.

The assay is the same for the next values; noted with them: the 38th table, compounds 66-65 to 66-72; read-out: EC50.
Consider `CNC(=O)c1cc(F)c(N2CCC(=NOC3CCN(Cc4ccc(-c5ccccn5)cc4)CC3)CC2)cc1F` [Example 66-65], for which the EC50 turned out to be 0.792 µM. For the molecule `CNC(=O)c1cc(F)c(N2CCC(=NOC3CCN(Cc4ccc(-c5cccnc5)cc4)CC3)CC2)cc1F` [Example 66-66], the EC50 is 1.27 µM.

In the case of `CNC(=O)c1cc(F)c(N2CCC(=NOC3CCN(Cc4ccc(C(F)(F)F)cc4)CC3)CC2)cc1F` [Example 66-67], the EC50 is 0.155 µM.

With `CNC(=O)c1cc(F)c(N2CCC(=NOC3CCN(Cc4ccc(Cl)cc4)CC3)CC2)cc1F` [Example 66-68], the EC50 was found to be 0.365 µM.

On to `CNC(=O)c1cc(F)c(N2CCC(=NOC3CCN(Cc4ccc(-c5cncnc5)cc4)CC3)CC2)cc1F` [Example 66-69], for which the EC50 amounted to 2.26 µM.

On to `CNC(=O)c1cc(F)c(N2CCC(=NOC3CCN(Cc4ccc(C)cc4)CC3)CC2)cc1F` [Example 66-70], for which the EC50 came out at 0.193 µM. The same measure, in the same setting: to `CCc1ccc(CN2CCC(ON=C3CCN(c4cc(F)c(C(=O)NC)cc4F)CC3)CC2)cc1` [Example 66-71] belongs 0.079 µM. In the case of `CCCc1ccc(CN2CCC(ON=C3CCN(c4cc(F)c(C(=O)NC)cc4F)CC3)CC2)cc1` [Example 66-72], the EC50 stood at 0.109 µM.

Still in this assay, the particulars now being: the 39th table, compounds 67-1 to 67-3; read-out: EC50.
As for `Cc1ccc(N2CCC(ON=C3CCN(c4ccc(S(C)(=O)=O)cc4F)CC3)CC2)nc1` [Example 67-1, 1-(2-Fluoro-4-methanesulfonyl-phenyl)-piperidin-4-one O-(5′-methyl-3,4,5,6-tetrahydro-2H-[1,2′]bipyridinyl-4-yl)-oxime], the EC50 came to 0.386 µM. With `CCc1ccc(N2CCC(ON=C3CCN(c4ccc(S(C)(=O)=O)cc4F)CC3)CC2)nc1` [Example 67-2], the EC50 was determined as 0.558 µM.

Turning to `Cc1ccc(N2CCC(ON=C3CCN(c4ccc(S(C)(=O)=O)cc4F)CC3)CC2)cn1` [Example 67-3], the concentration for a half-maximal effect (EC50) was determined as 0.745 µM.

What is called EC50 is the concentration at which the effect is half-maximal.

These data come from US8293729B2 (Boehringer Ingelheim International GmbH, priority 2009, dated 2012).
